Patent publication US20030040436A1 (priority 2000, published 2003)

Legend:
[1] = test system: Tiffway hybrid bermudagrass and SR1020 bentgrass; experiment: Phytotoxic field testing on grass test surfaces; format: in vivo; conditions: highest concentration (0.8% w/v), one square foot test surfaces
Source text: This formulation was applied to two grass species, Tiffway hybrid bermudagrass and SR1020 bentgrass. One square foot test surfaces of each grass type were used. The test formulation was applied to test surfaces in dilutions corresponding to 0.8, 0.3, and 0.1% (w/v) benzyl benzoate.

Phormidium algae [2] = experiment: Field test, spray application: control of algae on turfgrass; format: in vivo; conditions: single spray application, several days following
Source text: (§1) Each of the three concentrations and negative controls without benzyl benzoate were applied to one square foot of SRI 020 bentgrass or Tiffway hybrid bermudagrass, which was naturally infected with Phormidiumalgae, with a single spray application. The turfgrass was examined empirically for control of the algae as well and toxicity to the grass.

[3] = test system: SRI 020 bentgrass or Tiffway hybrid bermudagrass; experiment: Field test, spray application: toxicity to the grass; format: in vivo, SRI 020 bentgrass; Tiffway hybrid bermudagrass; conditions: all concentrations tested (0.8, 0.3, 0.1% w/v), single spray application
Source text: as §1

Phormidium algae [4] = experiment: Well-plate assay of algicidal activity; conditions: for Lethality: 24 hours under fluorescent light
Method: Liquid cultures of Phormidiumalgae were homogenized into individual cells in a standard laboratory blender apparatus. One hundred fifty μl of the homogenized algal suspension were added to the wells of 96-well assay plates using multitip-transfer pipettes. To each well, 150 μl of various dilutions of the test formulation were added, such that final concentrations of bcnzyl benzoate in the test wells were 0.8%, 0.3%, and 0.1%. The plates were allowed to incubation under fluorescent light for 24 hours.

Phormidium algae [5] = experiment: Filter paper assay of algicidal activity; format: cell-based; conditions: for Zone of Inhibition: observed 4 days after start
Source text: Briefly, the filter paper assay is designed to approximate an environment such as that found on a golf course, where algal pests can be particularly damaging. Blended fragment suspensions of Phormidium algae were passed through a coarse Whatman filter paper circle to collect the algal cells. The filter paper was then placed in a large Petri dish containing moist sand. The desired concentration of 10% benzyl benzoate formulation (0.8, 0.3 and 0.1% (w/v) final concentration) was placed on marked areas of the algae field to determine toxic effects. Observations were made 4 days after the test was initiated and were compared to control experiments using the known pesticide Daconil.

moss = experiment: Control of moss on greenhouse wall and ground; conditions: 5% (w/v), sprayed to run-off, one application, within 24 hours

Structure (SMILES)	phytotoxicity [1]	algae control (Phormidium algae [2]; 0.3% (w/v))	algae control (Phormidium algae [2]; 0.8% (w/v))	phytotoxic effect (chemical burn) on the two grass species [3]	Comments (efficacy compared to Daconil) (Phormidium algae [4]; 0.1% benzyl benzoate)	Lethality (Phormidium algae [4]; 0.1% benzyl benzoate final concentration)	Comments (efficacy compared to Daconil) (Phormidium algae [4]; 0.3% benzyl benzoate)	Lethality (Phormidium algae [4]; 0.3% benzyl benzoate final concentration)	Comments (efficacy compared to Daconil) (Phormidium algae [4]; 0.8% benzyl benzoate)	Lethality (Phormidium algae [4]; 0.8% benzyl benzoate final concentration)	Zone of Inhibition (Phormidium algae [5]; 0.1% (w/v) benzyl benzoate)	killing Phormidium (Phormidium algae [5]; 0.3% (w/v) benzyl benzoate)	Zone of Inhibition (Phormidium algae [5]; 0.3% (w/v) benzyl benzoate)	killing Phormidium (Phormidium algae [5]; 0.8% (w/v) benzyl benzoate)	Zone of Inhibition (Phormidium algae [5]; 0.8% (w/v) benzyl benzoate)	phytotoxicity to moss (moss)
O=C(OCc1ccccc1)c1ccccc1 [benzyl benzoate]	Only small signs of phytotoxicity	significant level of control	most effective algae control	minimal phytotoxic effect	Same efficacy as	no	Superior to Daconil	yes	Superior to Daconil	yes	no	very effective	yes	very effective	yes	–
O=C(OCc1ccccc1)c1ccccc1O [benzyl salicylate]	–	–	–	–	–	–	–	–	–	–	–	–	–	–	–	phytotoxic to moss
CCCCCCC(C=O)=Cc1ccccc1 [HCA, α-hexyl cinnamic aldehyde, reference compound]	–	–	–	–	–	–	–	–	–	–	–	–	–	–	–	phytotoxic to moss
